Test results from PubChem BioAssay (NCI).
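Compound exposure: 48 hours, 5 concentrations, 96-well plates. TGI: concentration producing complete growth inhibition.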

Key:
Experiment in all cases: NCI tumour cell line growth inhibition, 48 h
[1] = tested on: 786-0 renal
[2] = tested on: M14 melanoma
[3] = tested on: MDA-MB-231 breast
[4] = tested on: NCI/ADR-RES ovarian
[5] = tested on: SW-620 colon
[6] = tested on: RPMI-8226 leukemia
[7] = tested on: LOX IMVI melanoma
[8] = tested on: K-562 leukemia
[9] = tested on: COLO 205 colon
[10] = tested on: ACHN renal
[11] = tested on: PC-3 prostate
[12] = tested on: OVCAR-3 ovarian
[13] = tested on: HCT-116 colon
[14] = tested on: DU-145 prostate
[15] = tested on: SNB-19 CNS
[16] = tested on: CCRF-CEM leukemia
[17] = tested on: SF-295 CNS
[18] = tested on: HOP-92 NSCLC
[19] = tested on: HCC-2998 colon
[20] = tested on: SN12C renal

SMILES | TGI [1] [µM] | TGI [2] [µM] | TGI [3] [µM] | TGI [4] [µM] | TGI [5] [µM] | TGI [6] [µM] | TGI [7] [µM] | TGI [8] [µM] | TGI [9] [µM] | TGI [10] [µM] | TGI [11] [µM] | TGI [12] [µM] | TGI [13] [µM] | TGI [14] [µM] | TGI [15] [µM] | TGI [16] [µM] | TGI [17] [µM] | TGI [18] [µM] | TGI [19] [µM] | TGI [20] [µM]
CC(C)(C)c1cc(C(C)(C)C)c(P=C(Cl)Cl)c(C(C)(C)C)c1 (stereo not given) | > 100 | > 100 | > 100 | > 100 | > 100 | > 100 | > 100 | > 100 | > 100 | > 100 | > 100 | > 100 | > 100 | > 100 | > 100 | > 100 | > 100 | > 100 | > 100 | > 100
Cc1cc2c(c(C=Nc3ccc(N(C)C)cc3)c1)OC1(C=C2)Oc2ccccc2C(=O)N1C (stereo not given) | 28.2 | 30 | 24.8 | > 60.7 | 35.6 | 31.1 | 29.7 | 21.1 | 33.9 | 25.5 | > 52.5 | > 50.1 | 21.6 | 27.9 | 24.5 | 17.5 | 46.5 | 44.8 | 30.2 | 30
CCOC(=O)NC(OCCN(C)C)(C(F)(F)F)C(F)(F)F | > 100 | > 100 | > 100 | > 100 | > 100 | > 100 | > 100 | > 100 | > 100 | > 100 | > 100 | > 100 | > 100 | > 100 | > 100 | > 100 | > 100 | > 100 | > 100 | > 100
Cc1ccc([N+](=O)[O-])cc1S(=O)(=O)Nc1ccc(C2=NOC(c3ccccc3)C2)cc1 (stereo not given) | 35.6 | 18.1 | 88.3 | 67.3 | 59.1 | 34.6 | 24.3 | 5.14 | 33.8 | 50.4 | > 100 | 10.5 | 24.1 | 33.9 | 55.5 | 59.2 | 19.7 | 61.2 | 25.8 | 71.7
COc1ccc(/C=C/C(=O)c2cccc(C(=O)/C=C/c3ccc(OC)c(OC)c3)n2)cc1OC | 27.5 | > 79.8 | 70.6 | > 86.8 | 15.9 | > 22.6 | 10.6 | > 100 | > 100 | > 100 | > 100 | > 100 | 27.6 | > 100 | 99.1 | 6.29 | > 100 | > 100 | > 100 | 30.1
CCOC(=O)NC(Nc1cccc(F)c1)(C(F)(F)F)C(F)(F)F | > 100 | > 100 | > 100 | > 100 | > 100 | > 100 | > 100 | > 100 | > 100 | > 100 | > 100 | > 100 | > 100 | > 100 | > 100 | > 100 | > 100 | > 100 | > 100 | > 100
